Measured values from ChEMBL document CHEMBL6071165, “Design, synthesis and biological evaluation of plant-derived miliusol derivatives achieve TNBC profound regression in vivo” (Eur J Med Chem, 2024).
Calls of active or inactive are those of the source. No cut-off for these calls is given here.

Columns and labels:
MDA-MB-231 [1] = experiment: Antiproliferative activity against human MDA-MB-231 cells xenografted in female BALB/c mouse model assessed as fold change in downregulation of MMP-2 protein level at 10 mg/kg administered subcutaneously incubated for 24 hrs by Western blot analysis (reference value: 1.00%); format: functional; settings: route sc
MDA-MB-231 [2] = experiment: Antiproliferative activity against human MDA-MB-231 cells xenografted in female BALB/c mouse model assessed as fold change in inhibition of PKM2 expression at 5 mg/kg administered subcutaneously incubated for 24 hrs by Western blot analysis (reference value: 1.00%); format: functional; settings: route sc
MDA-MB-231 [3] = experiment: Induction of apoptosis in human MDA-MB-231 cells assessed as necrotic cells at 2 uM incubated for 24 hrs by Annexin V-PI staining based flow cytometric analysis (reference value: 1.29%); format: functional
MDA-MB-231 [4] = experiment: Inhibition of cell migration in human MDA-MB-231 cells assessed as decrease in MMP-2 level incubated for 24 hrs by Western blot analysis; format: functional, cell-based; settings: dose 0.5-2 µM
MDA-MB-231 [5] = experiment: Antiproliferative activity against human MDA-MB-231 cells xenografted in female BALB/c mouse model assessed as fold change in cleavage of caspase-3 level at 10 mg/kg administered subcutaneously incubated for 24 hrs by Western blot analysis (reference value: 1.00%); format: functional; settings: route sc
MDA-MB-231 [6] = experiment: Antiproliferative activity against human MDA-MB-231 cells xenografted in female BALB/c mouse model assessed as inhibition of Ki-67 expression at 5 to 20 mg/kg administered subcutaneously by immunohistochemical staining based microscopic analysis; format: functional, organism-based; settings: dose 5-20 mg/kg, route sc
MDA-MB-231 [7] = experiment: Inhibition of glycolysis in human MDA-MB-231 cells assessed as decrease in LDHA protein level at 0.5 to 2 uM incubated for 24 hrs by Western blot analysis; format: functional, cell-based; settings: dose 0.5-2 µM
BT-549 [8] = experiment: Antiproliferative activity against human BT-549 cells xenografted in female BALB/c mouse model assessed as fold change in upregulation of BIP protein level at 5 mg/kg administered subcutaneously incubated for 24 hrs by Western blot analysis (reference value: 1.00%); format: functional; settings: route sc
Mitochondrial membrane = experiment: Disruption of mitochondrial potential loss in human BT-549 cells assessed as decrease in JC-1 aggregates at 1 uM incubated for 24 hrs by JC-1 staining based flow cytometric analysis (Rvb =98.7%); format: cell membranes; set-up: scale not given: the % may be the effect or the level left
BT-549 [9] = experiment: Downregulation of c-Jun level in human BT-549 cells incubated for 24 hrs by Western blot analysis; format: functional, cell-based; settings: dose 0.5-2 µM
BT-549 [10] = experiment: Induction of apoptosis in human BT-549 cells assessed as upregulation of cleavage of caspase-9 expression at 0.5 to 2 uM incubated for 24 hrs by Western blot analysis; format: functional, cell-based; settings: dose 0.5-2 µM
BT-549 [11] = experiment: Antiproliferative activity against human BT-549 cells xenografted in female BALB/c mouse model assessed as fold change in inhibition of PKM2 expression at 10 mg/kg administered subcutaneously incubated for 24 hrs by Western blot analysis (reference value: 1.05%); format: functional; settings: route sc
MDA-MB-231 [12] = experiment: Induction of apoptosis in human MDA-MB-231 cells assessed as viable cells at 1 uM incubated for 24 hrs by Annexin V-PI staining based flow cytometric analysis (reference value: 96.5%); format: functional; settings: read-out: Activity
MDA-MB-231 [13] = experiment: Antitumor activity against human MDA-MB-231 cells xenografted in female BALB/c mouse model assessed as reduction of proliferation rate of tumor at 5 to 20 mg/kg administered subcutaneously and measured every day; format: functional, organism-based; settings: dose 5-20 mg/kg, route sc
[14] = Toxicity in female BALB/c mouse xenografted with human BT-549 cells assessed as effect on pathological changes in spleen at 5 to 20 mg/kg, sc by H and E staining based analysis; format: organism-based; settings: in vivo, dose 5-20 mg/kg
MDA-MB-231 [15] = experiment: Inhibition of cell migration in human MDA-MB-231 cells assessed as reduction in MMP-2 protein level at 1 uM incubated for 24 hrs by DAPI staining based immunofluorescence analysis; format: functional
MDA-MB-231 [16] = experiment: Antiproliferative activity against human MDA-MB-231 cells xenografted in female BALB/c mouse model assessed as fold change in upregulation of BAX protein level at 10 mg/kg administered subcutaneously incubated for 24 hrs by Western blot analysis (reference value: 1.00%); format: functional; settings: route sc
BT-549 [17] = experiment: Induction of ER stress in human BT-549 cells assessed as activation of CHOP protein level incubated for 24 hrs by Western blot analysis; format: functional, cell-based; settings: dose 0.5-2 µM
MDA-MB-231 [18] = experiment: Inhibition of cell migration in human MDA-MB-231 cells assessed as increase in E-cadherin level incubated for 24 hrs by Western blot analysis; format: functional, cell-based; settings: dose 0.5-2 µM

## CC(C)=CCC/C(C)=C/[C@H]1OC(=O)CC12C[C@H](OC(=O)Cc1ccc(NC(=O)/C=C/c3ccccc3)cc1)C=CC2=O (some centres undefined)
MDA-MB-231 [1]
  fold change (FC): 0.26
MDA-MB-231 [2]
  fold change (FC): 0.81
MDA-MB-231 [3]
  Activity: 6.53%
MDA-MB-231 [4]
  inhibition: Dose-Dependent Effect
MDA-MB-231 [5]
  fold change (FC): 1.67
MDA-MB-231 [6]
  Activity: Active
MDA-MB-231 [7]
  inhibition: Active
BT-549 [8]
  fold change (FC): 1.4
Mitochondrial membrane
  Activity: 43.2%
BT-549 [9]
  Activity: Dose-Dependent Effect
BT-549 [10]
  Activity: Active
BT-549 [11]
  fold change (FC): 0.76
MDA-MB-231 [12]
  viability at 1 µM: 42%
MDA-MB-231 [13]
  Activity: Active
[14]
  Activity: Non-Toxic
MDA-MB-231 [15]
  inhibition: Active
MDA-MB-231 [16]
  fold change (FC): 1.13
BT-549 [17]
  Activity: Dose-Dependent Effect
MDA-MB-231 [18]
  inhibition: Dose-Dependent Effect
